One data set addresses T1, OATP2B1 (Homo sapiens, UniProt O94956).
T1 sequence (O94956 1-709): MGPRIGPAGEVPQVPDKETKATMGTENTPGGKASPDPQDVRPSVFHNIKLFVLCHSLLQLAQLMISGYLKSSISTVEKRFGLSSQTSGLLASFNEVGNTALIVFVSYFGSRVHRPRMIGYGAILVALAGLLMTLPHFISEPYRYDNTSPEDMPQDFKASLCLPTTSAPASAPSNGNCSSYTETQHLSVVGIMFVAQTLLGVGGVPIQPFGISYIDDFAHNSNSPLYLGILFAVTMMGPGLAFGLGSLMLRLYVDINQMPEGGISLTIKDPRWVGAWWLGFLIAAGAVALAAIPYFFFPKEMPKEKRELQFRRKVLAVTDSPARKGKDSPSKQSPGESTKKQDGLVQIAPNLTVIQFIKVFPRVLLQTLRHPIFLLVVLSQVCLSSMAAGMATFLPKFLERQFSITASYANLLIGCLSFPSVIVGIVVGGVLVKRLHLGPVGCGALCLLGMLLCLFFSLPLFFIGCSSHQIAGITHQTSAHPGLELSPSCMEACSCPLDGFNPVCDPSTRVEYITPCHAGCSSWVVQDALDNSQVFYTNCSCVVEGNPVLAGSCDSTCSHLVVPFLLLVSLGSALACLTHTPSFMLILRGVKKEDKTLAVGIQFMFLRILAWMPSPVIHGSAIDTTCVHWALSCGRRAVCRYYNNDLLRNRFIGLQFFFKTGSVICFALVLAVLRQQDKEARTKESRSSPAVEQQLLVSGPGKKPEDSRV
The class given is cell-based.

The next data set concerns the target T2, OATP1B1 (Homo sapiens, UniProt Q9Y6L6).
T2 sequence (Q9Y6L6 1-691): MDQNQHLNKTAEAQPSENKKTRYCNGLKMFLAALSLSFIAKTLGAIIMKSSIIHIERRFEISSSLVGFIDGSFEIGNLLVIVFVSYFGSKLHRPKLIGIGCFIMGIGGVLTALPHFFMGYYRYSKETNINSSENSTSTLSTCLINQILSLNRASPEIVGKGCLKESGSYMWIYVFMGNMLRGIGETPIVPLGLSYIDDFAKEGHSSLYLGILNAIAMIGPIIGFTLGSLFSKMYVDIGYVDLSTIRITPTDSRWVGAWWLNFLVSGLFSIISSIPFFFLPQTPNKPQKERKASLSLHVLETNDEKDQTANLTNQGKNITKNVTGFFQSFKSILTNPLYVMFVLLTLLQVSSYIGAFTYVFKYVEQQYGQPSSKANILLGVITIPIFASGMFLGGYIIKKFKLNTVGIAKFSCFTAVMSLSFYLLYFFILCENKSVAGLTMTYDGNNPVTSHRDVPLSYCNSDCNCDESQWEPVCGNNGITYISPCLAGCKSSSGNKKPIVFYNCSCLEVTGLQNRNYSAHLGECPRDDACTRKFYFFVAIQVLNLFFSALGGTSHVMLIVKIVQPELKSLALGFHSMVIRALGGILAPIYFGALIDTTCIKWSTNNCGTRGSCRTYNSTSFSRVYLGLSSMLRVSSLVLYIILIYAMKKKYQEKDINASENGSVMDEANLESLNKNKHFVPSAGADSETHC
The class given is cell-based. To be noted: hek-oatp1b1 cells.

Structures are written as SMILES.

As a reminder, the IC50 is the midpoint of a concentration-inhibition curve. What is called inhibition is how much of the control response was suppressed. At OATP2B1, `N=C(N)Nc1ccc(C(=O)Oc2ccc(CC(=O)O)cc2)cc1` [GBPA, 4-(4-guanidinobenzoyloxy)phenylacetic acid] came in with an IC50 of 11.1 ± 3.3 µM. The compound further yielded an inhibition at 100 µM against OATP1B1 of around 50%.

Source of the values: article PMC9748837 (Chemico-Biological Interactions, 2021).
